Columns and labels:
Assay type in all cases: in vivo
Ambrosia artemisiifolia = assay: Greenhouse pre-emergence (PRE) herbicidal test on AMBEL; details: Ambrosia artemisiifolia, pre-emergence, 480 h, 20 DAT
Geranium pusillum = assay: Greenhouse post-emergence (POST) herbicidal test on GERPU; details: Geranium pusillum, post-emergence, 480 h, 20 DAT
Outline: (§1)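 Visual damage rating on a 0–100 scale, 0 meaning normal growth and 100 complete kill of above-ground parts, taken 20 days after treatment. Spray applied post-emergence to plants 3–15 cm tall in loamy sand with approximately 3.0% humus.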

Commelina benghalensis = assay: Greenhouse pre-emergence (PRE) herbicidal test on COMBE; details: Commelina benghalensis, pre-emergence, 480 h, 20 DAT
Outline: (§2)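 Seeds were sown per species in loamy sand with ~3.0% humus, treated pre-emergence and kept at 10-25° C or 20-35° C depending on species. Damage was scored at 20 days after treatment on a 0-100 scale (100 = no emergence or complete destruction of above-ground parts, 0 = no damage).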

Abutilon theophrasti = assay: Greenhouse pre-emergence (PRE) herbicidal test on ABUTH; details: Abutilon theophrasti, pre-emergence, 480 h, PRE, 20 DAT
Outline: as §2

Digitaria sanguinalis = assay: Greenhouse post-emergence (POST) herbicidal test on DIGSA; details: Digitaria sanguinalis, post-emergence, 480 h, 20 DAT
Outline: as §1

Euphorbia heterophylla [1] = assay: Greenhouse pre-emergence (PRE) herbicidal test on EPHHL; details: Euphorbia heterophylla, pre-emergence, 480 h, 20 DAT
Outline: as §2

Lolium multiflorum = assay: Greenhouse pre-emergence (PRE) herbicidal test on LOLMU; details: Lolium multiflorum, pre-emergence, 480 h, 20 DAT
Outline: as §2

Echinochloa crus-galli = assay: Greenhouse post-emergence (POST) herbicidal test on ECHCG; details: Echinochloa crus-galli, post-emergence, 480 h, ECHCG POST, 20 DAT
Outline: as §1

Euphorbia heterophylla [2] = assay: Greenhouse post-emergence (POST) herbicidal test on EPHHL; details: Euphorbia heterophylla, post-emergence, 480 h, 20 DAT
Outline: as §1

Setaria viridis = assay: Greenhouse pre-emergence (PRE) herbicidal test on SETVI; details: Setaria viridis, pre-emergence, 480 h, PRE, 20 DAT
Outline: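 Seeds sown in loamy sand (~3.0% humus); compounds in water applied by fine nozzles directly after sowing, then pots irrigated and hooded until rooting. Plants held at 10-25° C or 20-35° C by species; damage scored 0-100 (100 = no emergence/complete destruction) 20 days after treatment.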

Amaranthus retroflexus = assay: Greenhouse pre-emergence (PRE) herbicidal test on AMARE; details: Amaranthus retroflexus, pre-emergence, 480 h; PRE, 0.5 gai/ha, 20 DAT
Procedure: The culture containers used were plastic pots containing loamy sand with approximately 3.0% of humus as substrate. The seeds of the test plants were sown separately for each species.
The containers were irrigated gently to promote germination and growth and subsequently covered with transparent plastic hoods until the plants had rooted.
Depending on the species, the plants were kept at 10-25° C. and 20-35° C., respectively.
The test period extended over 2 to 4 weeks. During this time, the plants were tended and their response to the individual treatments was evaluated.
Evaluation was carried out using a scale from 0 to 100. 100 means no emergence of the plants, or complete destruction of at least the above-ground parts, and 0 means no damage or normal course of growth. A good herbicidal activity is given at values of at least 70, and very good herbicidal activity is given at values of at least 85.
As indicated application was either post emergent (POST) at the respective growth stage (GS) of the weed (BBCH code), or pre-emergent (PRE). […]

Compound CCOC(=O)COc1ccccc1Oc1nc(-n2c(=O)cc(C(F)(F)F)n(C)c2=O)c(F)cc1Cl [2-[2-[[3-chloro-6-[3,6-dihydro-3-methyl-2,6-dioxo-4-(trifluoromethyl)-1(2H)-pyrimidinyl]-5-fluoro-2-pyridinyl]oxy]phenoxy]acetic acid ethyl ester] has an inhibition at […] (Ambrosia artemisiifolia; AMBEL PRE, use rate 0.25 gai/ha, read-out: % activity) of 0%, an inhibition at 0.5 g/ha (Ambrosia artemisiifolia; AMBEL PRE, use rate 0.5 gai/ha, read-out: % activity) of 0% and a pest or weed control at […] (Ambrosia artemisiifolia; PRE, 0.25 gai/ha) of 0%. The inhibition at 0.5 g/ha (Geranium pusillum; GERPU POST, use rate 0.5 gai/ha) was 85%, the pest or weed control at 0.5 g/ha (Geranium pusillum; POST, 0.5 gai/ha) was 85% and the inhibition at […] (Commelina benghalensis; COMBE PRE, use rate 0.25 gai/ha, read-out: % activity) was 0%. It also gave an inhibition at 0.5 g/ha (Commelina benghalensis; COMBE PRE, use rate 0.5 gai/ha) of 0%, a pest or weed control at 0.5 g/ha (Commelina benghalensis; PRE, 0.5 gai/ha) of 0% and a pest or weed control at […] (Abutilon theophrasti; 0.25 gai/ha) of 0%. For the same compound, the pest or weed control at 0.5 g/ha (Abutilon theophrasti; 0.5 gai/ha) was 10%, the inhibition at 0.5 g/ha (Digitaria sanguinalis; DIGSA POST, use rate 0.5 gai/ha) was 80% and the pest or weed control at […] (Digitaria sanguinalis; POST, 0.25 gai/ha) was 15%. The inhibition at […] (Euphorbia heterophylla [1]; EPHHL PRE, use rate 0.25 gai/ha, read-out: % activity) was 5%, the inhibition at 0.5 g/ha (Euphorbia heterophylla [1]; EPHHL PRE, use rate 0.5 gai/ha, read-out: % activity) was 0% and the pest or weed control at […] (Euphorbia heterophylla [1]; PRE, 0.25 gai/ha) was 5%. The pest or weed control at 0.5 g/ha (Euphorbia heterophylla [1]; PRE, 0.5 gai/ha) was 0%, the inhibition at […] (Lolium multiflorum; LOLMU PRE, use rate 0.25 gai/ha, read-out: % activity) was 0% and the pest or weed control at […] (Lolium multiflorum; PRE, 0.25 gai/ha) was 0%. It also gave a pest or weed control at 0.5 g/ha (Lolium multiflorum; PRE, 0.5 gai/ha) of 0%, an inhibition at […] (Echinochloa crus-galli; use rate 0.25 gai/ha) of 15% and an inhibition at 0.5 g/ha (Echinochloa crus-galli; use rate 0.5 gai/ha, read-out: % activity) of 80%. It also gave an inhibition at […] (Euphorbia heterophylla [2]; EPHHL POST, use rate 0.25 gai/ha) of 50%, a pest or weed control at […] (Euphorbia heterophylla [2]; POST, 0.25 gai/ha) of 50% and a pest or weed control at […] (Setaria viridis; 0.25 gai/ha) of 0%. For the same compound, the pest or weed control at 0.5 g/ha (Setaria viridis; 0.5 gai/ha) was 0% and the pest or weed control at 0.5 g/ha (Amaranthus retroflexus) was 0%.

Reference: patent publication US20260007133A1, “HERBICIDAL COMPOSITION COMPRISING AZINE COMPOUNDS” (BASF SE, priority 2022, published 2026)
